This note sets out measurements from ChEMBL document CHEMBL1201862, “PubChem BioAssay data set” (2004).

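All cell lines were grown in 96-well plates and treated with compound for 48 hours. GI50 is the concentration that inhibits growth by half.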 Activity calls are given as the source filed them. Rule as the data show it: active = GI50 up to about 1.1 µM and inactive = higher. A value given as a limit tells only on which side of the number the result lay.

Test systems include HCT-15; A498; U-251; RPMI-8226; RXF 393; HCC 2998; SK-MEL-28; HOP-62; OVCAR-8; NCI-H522; A549; HCT-116; NCI-H460; SK-MEL-2; KM12; OVCAR-4; ACHN; HOP-92; K562; MOLT-4.
What all share (assay): NCI anticancer screen, dose series, 48 h

As for `[N-]=[N+]=NCC(=O)c1cnc(O)nc1O`, the GI50 was over 100 µM in the assay with HCT-15; > 100 µM (inactive) in the assay on A498; > 100 µM (inactive) in the assay on U-251; > 100 µM (inactive) in the assay on RPMI-8226; > 100 µM (inactive) in the assay on RXF 393; > 100 µM (inactive) in the assay on HCC 2998. For the same compound, the GI50 with SK-MEL-28, with HOP-62, in the assay with OVCAR-8, in the assay on NCI-H522, in the assay with A549 and in the assay with HCT-116 was > 100 µM (inactive) each time. The GI50 in the assay on NCI-H460, in the assay on SK-MEL-2, in the assay with KM12, in the assay with OVCAR-4, with ACHN and with HOP-92 was > 100 µM (inactive) in each case. Further, the GI50 with K562 is > 100 µM (inactive).
Regarding `O=C1CCC2(c3ccccc3)Nc3ncccc3N12` (stereo not drawn), the GI50 with HCT-15 was over 100 µM; in the assay with MOLT-4, > 100 µM (inactive); in the assay with A498 it was > 100 µM (inactive); with U-251, > 100 µM (inactive); in the assay on RPMI-8226, > 100 µM (inactive); in the assay with RXF 393, > 100 µM (inactive). Further, the GI50 in the assay on HCC 2998, in the assay on SK-MEL-28, in the assay on HOP-62, with OVCAR-8, in the assay with NCI-H522 and in the assay on A549 was > 100 µM (inactive) in each case. For the same compound, the GI50 in the assay with NCI-H460, with SK-MEL-2, with KM12, in the assay with OVCAR-4, with ACHN and with HOP-92 was > 100 µM (inactive) throughout. Besides, the GI50 in the assay on K562 is > 100 µM (inactive).
For the compound `COC(=O)C(CC1=C(O)Nc2ccccc2N1)/C(=N/NC(N)=O)C(=O)Nc1ccccc1C` (stereo not drawn), the GI50 in the assay with HCT-15 is 16.6 µM; with MOLT-4, > 100 µM (inactive); with A498, > 100 µM (inactive); in the assay on U-251, > 100 µM (inactive); in the assay with RPMI-8226, 21 µM (inactive); in the assay on RXF 393 it was 38.5 µM (inactive). For the same compound, the GI50 was > 100 µM (inactive) with HCC 2998; 34.7 µM (inactive) with SK-MEL-28; > 100 µM (inactive) with HOP-62; > 100 µM (inactive) in the assay on OVCAR-8; 16.8 µM (inactive) with NCI-H522; > 100 µM (inactive) in the assay with A549. Moreover, the GI50 in the assay with HCT-116 is 18.2 µM (inactive); in the assay with NCI-H460, 28.8 µM (inactive); in the assay on SK-MEL-2 it was > 100 µM (inactive); with KM12, > 100 µM (inactive); with OVCAR-4, > 100 µM (inactive); with ACHN it was > 100 µM (inactive). In addition, the GI50 in the assay with HOP-92 is 44 µM (inactive); with K562, 97.7 µM (inactive).
For `ON1CCc2c([nH]c3ccccc23)C1c1ccc(Cl)cc1` (stereo not drawn), the GI50 with MOLT-4 is 21.4 µM (inactive); in the assay with A498, 33.1 µM (inactive); in the assay with U-251 it was 15.2 µM (inactive); in the assay on RPMI-8226 it was 29.6 µM (inactive); in the assay with RXF 393, 22.1 µM (inactive); in the assay on HCC 2998 it was 23.8 µM (inactive). Further, the GI50 with SK-MEL-28 was 36.4 µM (inactive); in the assay with HOP-62 it was 76.4 µM (inactive); in the assay with OVCAR-8 it was 32.4 µM (inactive); in the assay on NCI-H522, 28.1 µM (inactive); with A549, 30 µM (inactive); in the assay on HCT-116, 0.384 µM (active). Besides, the GI50 is 23.1 µM (inactive) in the assay on SK-MEL-2; 27.5 µM (inactive) in the assay with KM12; 31 µM (inactive) with ACHN; 16.8 µM (inactive) in the assay with HOP-92; 18.2 µM (inactive) in the assay on K562.
On to `COc1ccc(C(OCC2OC(n3ccc(Oc4c(F)c(F)c(F)c(F)c4F)nc3=O)CC2OP(OCCC#N)N(C(C)C)C(C)C)(c2ccccc2)c2ccc(OC)cc2)cc1` (stereo not drawn), for which the GI50 in the assay with HCT-15 is over 100 µM; with MOLT-4, > 100 µM (inactive); with A498 it was > 100 µM (inactive); in the assay with U-251, > 100 µM (inactive); in the assay on RPMI-8226, > 100 µM (inactive); with RXF 393, > 100 µM (inactive). For the same compound, the GI50 with HCC 2998, with SK-MEL-28, in the assay on HOP-62, in the assay with OVCAR-8, with NCI-H522 and in the assay on A549 was > 100 µM (inactive) throughout. Besides, the GI50 in the assay on HCT-116, in the assay with NCI-H460, in the assay on SK-MEL-2, in the assay on KM12, in the assay on ACHN and in the assay with HOP-92 was > 100 µM (inactive) in each case. In the assay on K562, the GI50 is > 100 µM (inactive).
Regarding `NC1CC2C3CCC2C1C3=O` (stereo not drawn), the GI50 with HCT-15 was over 100 µM; with MOLT-4 it was > 100 µM (inactive); with A498, > 100 µM (inactive); in the assay on U-251, > 100 µM (inactive); in the assay on RXF 393, > 100 µM (inactive); with HCC 2998, > 100 µM (inactive). Also, the GI50 with SK-MEL-28, in the assay on HOP-62, with OVCAR-8, in the assay with NCI-H522, with A549 and in the assay on HCT-116 was > 100 µM (inactive) in each case. Moreover, the GI50 in the assay on NCI-H460, with SK-MEL-2, with KM12, with OVCAR-4, with ACHN and in the assay with HOP-92 was > 100 µM (inactive) throughout. The GI50 in the assay on K562 is > 100 µM (inactive).
For `Cc1cc(C)n2nc3nc(N)c(C#N)c(-c4ccccc4)c3c2n1`, the GI50 is over 100 µM in the assay with HCT-15; > 100 µM (inactive) with MOLT-4; > 100 µM (inactive) with A498; > 100 µM (inactive) with U-251; > 100 µM (inactive) with RPMI-8226; > 100 µM (inactive) in the assay on RXF 393. Besides, the GI50 with HCC 2998, with SK-MEL-28, with HOP-62, in the assay on OVCAR-8, in the assay on NCI-H522 and in the assay on A549 was > 100 µM (inactive) each time. For the same compound, the GI50 in the assay with HCT-116, in the assay with NCI-H460, in the assay with SK-MEL-2, in the assay on KM12, with OVCAR-4 and with ACHN was > 100 µM (inactive) in each case. The GI50 in the assay with HOP-92 and in the assay with K562 was > 100 µM (inactive) throughout.
In the case of `Cc1cccc(C)c1NC(=O)C1=NC(=S)NC(c2ccccc2)C1c1nc2ccccc2s1` (stereo not drawn), the GI50 in the assay with MOLT-4, in the assay with A498, in the assay on U-251, in the assay with RXF 393, in the assay with HCC 2998 and in the assay with SK-MEL-28 was > 100 µM (inactive) each time. In addition, the GI50 in the assay on OVCAR-8, in the assay on NCI-H522, in the assay on A549, in the assay on HCT-116, in the assay on NCI-H460 and in the assay with SK-MEL-2 was > 100 µM (inactive) each time. The GI50 in the assay with KM12, in the assay with OVCAR-4, with ACHN, in the assay with HOP-92 and in the assay with K562 was > 100 µM (inactive) throughout.
As for `O=C(/C=C/c1cccc([N+](=O)[O-])c1)N1CCN(CCOC(c2ccccc2)c2ccccc2)CC1`, the GI50 in the assay with HCT-15 was 31.1 µM; in the assay on MOLT-4 it was 12.4 µM (inactive); in the assay with A498, 50.7 µM (inactive); with RPMI-8226, 12.3 µM (inactive); with RXF 393 it was 34.4 µM (inactive); in the assay on HCC 2998 it was 23.7 µM (inactive). For the same compound, the GI50 is 25.9 µM (inactive) in the assay on SK-MEL-28; > 100 µM (inactive) in the assay with HOP-62; 30.6 µM (inactive) in the assay with OVCAR-8; 24.5 µM (inactive) with NCI-H522; 45.7 µM (inactive) in the assay on A549; 18.6 µM (inactive) in the assay with HCT-116. The GI50 in the assay on NCI-H460 is 25.9 µM (inactive); with KM12, 26.9 µM (inactive); in the assay with OVCAR-4, 29.9 µM (inactive); in the assay on ACHN it was 34.5 µM (inactive); in the assay on HOP-92 it was 16.6 µM (inactive); with K562, 19.4 µM (inactive).
As for `C[C@@H](CC(O)C1OC1(C)C)[C@@H]1CC[C@]2(C)C3=CCC4C(C)(C)C(O)CC[C@]4(C)C3CCC12C` (stereo partly drawn), the GI50 in the assay on HCT-15 is 33.1 µM; in the assay with MOLT-4, 16 µM (inactive); in the assay with A498 it was 26.5 µM (inactive); in the assay on U-251, 30.5 µM (inactive); in the assay on RPMI-8226 it was 10.3 µM (inactive); with RXF 393, 16.7 µM (inactive). Besides, the GI50 was 48.6 µM (inactive) with HCC 2998; 18.2 µM (inactive) with SK-MEL-28; 42.8 µM (inactive) in the assay on HOP-62; 26.5 µM (inactive) in the assay on OVCAR-8; 11.8 µM (inactive) with NCI-H522; 12.7 µM (inactive) with A549. The GI50 in the assay with HCT-116 was 9.89 µM (inactive); in the assay with NCI-H460, 17.3 µM (inactive); with SK-MEL-2 it was 18.6 µM (inactive); with KM12, 22.9 µM (inactive); in the assay with OVCAR-4, 20.8 µM (inactive); in the assay with ACHN it was 14.8 µM (inactive). Besides, the GI50 was 17.9 µM (inactive) in the assay on HOP-92 and 6.84 µM (inactive) with K562.
